Assays:
BMDM [1] = assay: cytosolic mtDNA (qPCR after cellular fractionation) in BMDM; assay type: cell-based, mouse; settings: LPS-primed BMDM, compound 10 μM 16 h, ATP 4 mM 1 h
Procedure: (§1) Bone marrow cells were cultured in high glucose DMEM supplemented with 10% FBS, 20% L929-cell conditioned medium, and 100 U/mL penicillin-streptomycin for 7-10 days at 37° C. with 5% CO2 (Hornung et al., 2008).
(§2) BMDM were stimulated as indicated. […] Briefly, BMDM were washed with PBS and harvested, 10% of which were saved for DNA extraction of whole cells. The remaining BMDM resuspended with pre-chilled mitochondrial extraction buffer 1 (220 mM mannitol, 70 mM sucrose, 20 mM HEPES-KOH, pH 7.5, 1 mM EDTA and 2 mg/mL bovine serum albumin) supplemented with a protease inhibitor cocktail and a phosphatase inhibitor cocktail were passed through a 25-G syringe (BD Biosciences) 20 times on ice. The homogenized cells were centrifuged at 1000×g for 15 minutes at 4° C. The supernatant was further centrifuged at 10,000×g for 10 minutes at 4° C. to pellet the mitochondria from supernatant cytosolic fraction. qPCR was performed after DNA purification with AllPrep DNA/RNA Mini Kit according to manufacturer's instructions, from both whole cell extracts and cytosolic fractions using mtDNA primers (D-loop, Cox1, non-NUMT), or after DNA purification from whole cell extracts using nuclear DNA primers (Tert, 18S, B2m). The Ct values obtained for mtDNA abundance in whole cell extracts served as normalization controls for the mtDNA values obtained from the cytosolic fractions. For the measurement of Ox-mtDNA, purified mtDNA was extracted from the cytosolic or mitochondrial fractions as indicated. The 8-OH-dG content was then quantified using 8-hydroxy 2-deoxyguanosine ELISA Kit, per manufacturer's instructions.

BMDM [2] = assay: 8-OH-dG content of mtDNA from mitochondria of BMDM; settings: LPS-primed BMDM, FEN1-IN-4 pretreatment, ATP or nigericin
Procedure: as §1, §2

NLRP3 inflammasome [3] = assay: NLRP3 inflammasome activation (Casp1 p20 and mature IL-1β, IB and ELISA) in BMDM; assay type: cell-based, mouse; settings: LPS-primed BMDM, compound pretreatment 16 h, challenged with NLRP3 activators
Text: Paired antibodies (capture and detection) and standard recombinant mouse IL-1β and TNF were used to determine mouse cytokine concentrations according to manufacturer's instructions.

BMDM [4] = assay: stimulation of naive recipient BMDM by cell-free mtDNA (cytokine and ISG mRNA, qPCR); assay type: cell-based, mouse; settings: recipient BMDM incubated 24 h with DNA from compound-pretreated donor BMDM; cytokine and ISG mRNAs
Procedure: RNA was extracted using AllPrep DNA/RNA Mini kit, and cDNA was synthesized using SuperScript™ VILO™ cDNA Synthesis Kit. mRNA expression was determined by QPCR in a CFX96 thermal cycler (Biorad) as described (Xian et al., 2021). Data are presented in arbitrary units and calculated by the 2^(−ΔΔCT) method. Primer sequences were obtained from the NIH qPrimerDepot (http://mouseprimerdepot.nci.nih.gov) and provided by Integrated DNA technologies.
Extracellular DNA of donor macrophages (1500,000 cells per group) was isolated using QIAamp Circulating Nucleic Acid Kit according to manufacturer's instructions and then eluted in 300 μL distilled H2O and quantified using spectrophotometric analysis at 260/280 nm with Nanodrop. DNA amounts purified among the different treatment groups vary. The DNA amount secreted from LPS-primed donor BMDM is low, approximately at 0.1 μg. The amount of DNA released by LPS-primed donor BMDM challenged with ATP is about 1.3 μg, while the amount of DNA released by LPS-primed donor BMDM challenged with nigericin is around 2 μg. The amount of DNA secreted by LPS-primed donor BMDM challenged with MSU or alum is about 0.7 μg. Applicant used 5% of the prepared DNA for qPCR measurement of extracellular mtDNA and the remaining 95% were added to the recipient BMDM for analyzing the paracrine immunostimulatory effects.

BMDM [5] = assay: extracellular (cell-free) mtDNA released by donor BMDM; assay type: cell-based, mouse; settings: LPS-primed donor BMDM pretreated with compound, challenged with ATP or nigericin
Procedure: Extracellular DNA of donor macrophages (1500,000 cells per group) was isolated using QIAamp Circulating Nucleic Acid Kit according to manufacturer's instructions and then eluted in 300 μL distilled H2O and quantified using spectrophotometric analysis at 260/280 nm with Nanodrop. […] Applicant used 5% of the prepared DNA for qPCR measurement of extracellular mtDNA and the remaining 95% were added to the recipient BMDM for analyzing the paracrine immunostimulatory effects.

BMDM [6] = assay: total mtDNA (LPS-stimulated mtDNA synthesis, qPCR) in BMDM; assay type: cell-based, mouse; settings: compound 10 μM 16 h, before or after LPS priming
Text: Nuclear DNA encoding telomerase reverse transcriptase (Tert), 18S ribosomal RNA and β2 microglobulin (B2m) was used for normalization.

STING = STING Ser365 phosphorylation (puncta by immunofluorescence, immunoblot) in BMDM; settings: CsA 1 μM, VBIT-4 10 μM or FEN1-IN-4 10 μM 16 hrs
Procedure: as §1
Whole cell lysates were prepared in RIPA buffer (25 mM Tris-HCl pH 7.6, 150 mM NaCl, 1% NP-40, 1% sodium deoxycholate, 0.1% SDS) containing a protease inhibitor cocktail and a phosphatase inhibitor cocktail. Protein concentrations were determined using BCA Protein Assay Kit. Equal amounts of protein were separated by SDS-PAGE and transferred onto PVDF membranes, blocked in 5% BSA in 1×TBST for 1 h and incubated with primary antibodies overnight. Secondary antibodies were added for 1 h and detection was performed using Clarity Western ECL Substrate.
BMDM were fixed in 4% paraformaldehyde (PFA), permeabilized in 0.2% Triton X-100,and blocked in 1×PBS supplemented with 3% BSA. […] Nuclei were counterstained with DAPI.

NLRP3 inflammasome [7] = assay: alum-induced peritonitis in mice; assay type: in vivo, mouse
Procedure: 8-12-week-old male C57BL/6 mice and WT or mt-Ogg1Tg mice were allocated randomly and i.p. injected with alum (1 mg dissolved in 0.2 mL sterile PBS) or PBS. Peritoneal lavage was collected 4 h post-injection to measure cytokine amounts by ELISA. […] Neutrophils (CD11b^+Ly6G^+F4/80^−) and monocytes (CD11b^+Ly6C^+Ly6G^−) present in peritoneal lavage fluid were quantified by flow cytometry. For blocking Fc-mediated interactions, mouse cells were pre-incubated with 0.5-1 μg of purified anti-mouse CD16/CD32 per 100 μL. Isolated cells were stained with labelled antibodies in PBS with 2% FCS and 2 mM EDTA or cell staining buffer (Biolegend). Dead cells were excluded based on staining with propidium iodide (PI). Absolute numbers of immune cell subtypes in the peritoneum were calculated by multiplying total peritoneal cell numbers by percentages of immune cell subtypes amongst total cells. Cells were analyzed on a Beckman Coulter Cyan ADP flow cytometer. Paired antibodies (capture and detection) and standard recombinant mouse IL-1β and TNF were used to determine mouse cytokine concentrations according to manufacturer's instructions.

BMDM [8] = assay: mtROS (MitoSOX) in BMDM; settings: LPS-primed BMDM, compound pretreatment 16 h, ATP or nigericin
Procedure: as §1
Mitochondrial membrane potential was measured using TMRM according to manufacturer's instructions. Briefly, BMDM were primed or not with LPS for 4 h, and further stimulated with ATP or nigericin for 60 minutes. Cells were incubated with 200 nM TMRM for 30 minutes at 37° C. After washing twice, fluorescence intensity was determined per manufacturer's instructions using a FilterMax F5 multimode plate reader (Molecular Devices). Mitochondrial reactive oxygen species (mtROS) were measured using MitoSOX (Invitrogen) as described (Xian et al., 2021). BMDM treated as indicated were loaded with 4 μM MitoSOX for 20 minutes. After washing with PBS twice, cells were resuspended in PBS and counted. Equal numbers of cells from different treatment groups were then plated onto 96-well plates for fluorescence reading. To quantify [Ca^2+]m by 5 μM Rhod-2 or intracellular Ca^2+ intensity by 1 μM Fluo-4, BMDM treated as indicated were loaded with the respective dyes according to manufacturer's instructions for 30 minutes. After washing twice, fluorescence intensity was determined using a FilterMax F5 multimode plate reader (Molecular Devices). To analyze mPTP opening by calcein-quenching assay, BMDM treated as indicated were loaded with calcein at 2 μM and CoCl2 at 160 μM for 30 minutes at 37° C. according to manufacturer's instructions. After washing twice, fluorescence intensity was determined per with a FilterMax F5 multimode plate reader (Molecular Devices).

[9] = ccf-mtDNA and Fpg-sensitive Ox-mtDNA in peritoneal exudates of alum-challenged mice; assay type: in vivo, mouse; settings: FEN1-IN-4 40 mg/kg, exudates 4 and 16 hrs post-challenge
BMDM [10] = assay: mtDNA fragmentation (agarose gel of cytosolic and mitochondrial DNA) in BMDM; assay type: cell-based, mouse; settings: FEN1-IN-4 10 μM 16 h, LPS-primed, ATP
Text: To analyze DNA fragmentation and extrusion in mitochondrial and cytosolic fractions, BMDM (15000,000 cells per group) were stimulated as indicated and fractionalized as above. […] Cytosolic, mitochondrial or nuclear DNAs were purified using AllPrep DNA/RNA Mini Kit according to manufacturer's instructions and analyzed on 1% agarose gels stained with ethidium bromide.

BMDM [11] = assay: cytosolic Ox-mtDNA (8-OH-dG ELISA of cytosolic mtDNA) in BMDM; assay type: cell-based, mouse; settings: LPS-primed BMDM, compound 10 μM 16 h, ATP 4 mM 1 h
Procedure: as §1, §2

[12] = FEN1-IN-4 40 mg/kg 16 h prior to i.p. alum 1 mg, exudate 4 h later
[13] = FEN1-IN-4 40 mg/kg 16 h prior to i.p. alum, 16 h

For `O=c1c2ccccc2n(CC2CC2)c(=O)n1O` [FEN1-IN-4], the “cytosolic mtDNA release” value (BMDM [1]) was “abrogated”, the “Ox-mtDNA generation (8-OH-dG in mitochondrial mtDNA)” value (BMDM [2]) was “no effect” and the “NLRP3 inflammasome activation (Casp1 activation and mature IL-1β secretion)” value (NLRP3 inflammasome [3]) was “dose-dependent inhibition”. For the same compound, the “immunostimulatory activity of DNA secreted by treated donor BMDM” value (BMDM [4]) was “inhibited”, the “cell-free mtDNA release” value (BMDM [5]) was “inhibited” and the “LPS-stimulated mtDNA synthesis (total mtDNA)” value (BMDM [6]) was “did not affect”. The “formation of Ser^365 phosphorylated STING puncta” value (STING; LPS-primed BMDM, ATP or nigericin) was “diminished”, the “ATP-induced STING Ser^365 phosphorylation (immunoblot) in Nlrp3−/− BMDM” value (STING; LPS-primed Nlrp3−/− BMDM, ATP) was “completely blocked” and the “alum-induced NLRP3 inflammasome-dependent IL-1β production in vivo (peritoneal IL-1β)” value (NLRP3 inflammasome [7]; [12]) was “inhibited”. The “peritoneal TNF secretion in vivo” value (NLRP3 inflammasome [7]; [12]) was “without an effect”, the “monocyte infiltration (peritoneal)” value (NLRP3 inflammasome [7]; [13]) was “reduced” and the “neutrophil infiltration (peritoneal)” value (NLRP3 inflammasome [7]; [13]) was “reduced”. The mtROS production (BMDM [8]) was “no effect”, the “ccf-mtDNA secretion into peritoneal exudates” value [9] was “inhibited” and the “Ox-mtDNA secretion into peritoneal exudates” value ([9]; Fpg-sensitive qPCR) was “inhibited”. The mtDNA fragmentation (BMDM [10]) was “abrogated” and the “cytosolic Ox-mtDNA (release)” value (BMDM [11]) was “abrogated”.
